In ChEMBL document CHEMBL3826931, “Salinomycin Hydroxamic Acids: Synthesis, Structure, and Biological Activity of Polyether Ionophore Hybrids” (ACS Med Chem Lett, 2016) one finds Activity and IC50 data, which are given here for five compounds.

The source made the active and inactive calls. The calls are words filed in the database; no cut-off is given here.

The test system of data set [1] is JIMT-1. Nature of the data set: Reduction in aldehyde dehydrogenase levels in human JIMT1 cells at 5 to 10 uM by ALDEFLUOR assay. Type of data set: functional, cell-based.
The nature of data set [2]: Cytotoxicity against human JIMT1 cells after 72 hrs by MTT assay. Type of data set: functional, cell-based. The settings on record: JIMT-1, 72 h.
The subject of a further data set is MCF7. In words: Cytotoxicity against human MCF7 cells after 72 hrs by MTT assay. Type of data set: functional, cell-based. As to conditions: MCF7, 72 h.
For data set [3], the system named is JIMT-1. Nature of the data set: Reduction in aldehyde dehydrogenase levels in human JIMT1 cells at 0.52 uM by ALDEFLUOR assay (reference value: 30 to 60%). Format: functional. Further details: scale not given: the % may be the effect or the level left.
The nature of data set [4]: Ionophoric activity in large unilamellar POPC/POPG (3:1) vesicles assessed as relaxation of potassium coupled-proton gradient by measuring decrease in internal pH at 1 pM after 300 secs by ratiometric pH reporter pyranin based spectroscopic analysis. Type of data set: ADME. As to conditions: 5 min.
Data set [5] can be described thus: Ionophoric activity in large unilamellar POPC/POPG (3:1) vesicles assessed as relaxation of potassium coupled-proton gradient by measuring decrease in internal pH at 100 pM after 300 secs by ratiometric pH reporter pyranin based spectroscopic analysis. Type of data set: ADME. The settings on record: 5 min, 0.0001 µM.

In general, IC50 refers to the midpoint of a concentration-inhibition curve. On to `CC[C@@H](C(=O)[C@@H](C)[C@@H](O)[C@H](C)[C@@H]1O[C@@H]([C@@H](CC)C(=O)N(C)OC)CC[C@@H]1C)[C@H]1O[C@]2(C=C[C@@H](O)[C@]3(CC[C@@](C)([C@H]4CC[C@](O)(CC)[C@H](C)O4)O3)O2)[C@H](C)C[C@@H]1C`, for which, in the data set with JIMT-1 [1], the outcome was inactive. In addition, the IC50 in data set [2] turned out to be 10.1 µM; with MCF7, 9.3 µM.

For `CC[C@@H](C(=O)[C@@H](C)[C@@H](O)[C@H](C)[C@@H]1O[C@@H]([C@@H](CC)C(=O)O)CC[C@@H]1C)[C@H]1O[C@]2(C=C[C@@H](O)[C@]3(CC[C@@](C)([C@H]4CC[C@](O)(CC)[C@H](C)O4)O3)O2)[C@H](C)C[C@@H]1C` [SALINOMYCIN], the Activity is listed as 60% in the data set with JIMT-1 [3] and “Active” in data set [4]. Besides, the figures for the 50% inhibitory concentration (IC50) (in data set [2]; in the data set on MCF7) were 0.52 µM and 0.59 µM, respectively.

Turning to `CC[C@@H](C(=O)[C@@H](C)[C@@H](O)[C@H](C)[C@@H]1O[C@@H]([C@@H](CC)C(=O)NO)CC[C@@H]1C)[C@H]1O[C@]2(C=C[C@@H](O)[C@]3(CC[C@@](C)([C@H]4CC[C@](O)(CC)[C@H](C)O4)O3)O2)[C@H](C)C[C@@H]1C`, the outcome in the data set on JIMT-1 [1] was inactive. Moreover, the IC50 in data set [2] is 6.7 µM; in the data set on MCF7, 10 µM. In addition, the result in data set [5] was Active.

Regarding `CC[C@@H](C(=O)[C@@H](C)[C@@H](O)[C@H](C)[C@@H]1O[C@@H]([C@@H](CC)C(=O)N(C)O)CC[C@@H]1C)[C@H]1O[C@]2(C=C[C@@H](O)[C@]3(CC[C@@](C)([C@H]4CC[C@](O)(CC)[C@H](C)O4)O3)O2)[C@H](C)C[C@@H]1C`, in the data set on JIMT-1 [1], the result was inactive. For the same compound, the IC50 (in data set [2]; in the data set on MCF7) was above 20 µM throughout.

As to `CC[C@@H](C(=O)[C@@H](C)[C@@H](O)[C@H](C)[C@@H]1O[C@@H]([C@@H](CC)C(=O)NOC)CC[C@@H]1C)[C@H]1O[C@]2(C=C[C@@H](O)[C@]3(CC[C@@](C)([C@H]4CC[C@](O)(CC)[C@H](C)O4)O3)O2)[C@H](C)C[C@@H]1C`, the result in the data set with JIMT-1 [1] was inactive. The values for the IC50 (in data set [2]; with MCF7) were 17.3 µM and 16.3 µM, respectively.
